Test results as given in article PMC10551024, “A deazariboflavin chromophore kinetically stabilizes reduced FAD state in a bifunctional cryptochrome” (Scientific Reports, 2023).

Legend:
Format in all cases: binding
[1] = target: T1, CraCRY (Chlamydomonas reinhardtii, UniProt A8J8W0); experiment: UV/vis absorption after incubation and gel filtration; details: synthetic 8-HDF, 100 µM with 20 µM protein, on ice; secondary pocket, antenna chromophore; protein holds FAD
T1 construct: gene CHLRE_06g278251v5; lacks C-terminal tail (497-595); His-tagged, pET-28a(+), E. coli BL21(DE3); TALON and heparin purified
T1 sequence (A8J8W0 1-496): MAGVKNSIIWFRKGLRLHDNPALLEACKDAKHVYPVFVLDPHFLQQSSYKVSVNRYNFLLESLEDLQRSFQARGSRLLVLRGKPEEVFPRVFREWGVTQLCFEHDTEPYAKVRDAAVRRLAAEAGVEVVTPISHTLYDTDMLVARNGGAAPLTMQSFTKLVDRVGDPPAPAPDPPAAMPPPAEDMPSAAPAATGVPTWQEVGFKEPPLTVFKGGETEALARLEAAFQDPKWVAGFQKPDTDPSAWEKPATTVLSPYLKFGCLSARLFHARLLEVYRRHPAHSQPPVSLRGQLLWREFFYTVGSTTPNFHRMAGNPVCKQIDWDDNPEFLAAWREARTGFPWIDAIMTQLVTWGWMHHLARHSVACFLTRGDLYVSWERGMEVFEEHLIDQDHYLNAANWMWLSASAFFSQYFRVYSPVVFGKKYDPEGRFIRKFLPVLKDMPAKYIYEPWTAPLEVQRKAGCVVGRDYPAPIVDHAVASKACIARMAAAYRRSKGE

[2] = target: T2, Xl64 (Xenopus laevis, UniProt Q9I910); experiment: as above; details: synthetic 8-HDF, 100 µM with 20 µM protein, on ice; secondary pocket, antenna chromophore; protein holds FAD
T2 construct: gene Xl64phr; recombinant, pET-28a(+), E. coli C41(DE3)/pLysS
T2 sequence (Q9I910 1-526): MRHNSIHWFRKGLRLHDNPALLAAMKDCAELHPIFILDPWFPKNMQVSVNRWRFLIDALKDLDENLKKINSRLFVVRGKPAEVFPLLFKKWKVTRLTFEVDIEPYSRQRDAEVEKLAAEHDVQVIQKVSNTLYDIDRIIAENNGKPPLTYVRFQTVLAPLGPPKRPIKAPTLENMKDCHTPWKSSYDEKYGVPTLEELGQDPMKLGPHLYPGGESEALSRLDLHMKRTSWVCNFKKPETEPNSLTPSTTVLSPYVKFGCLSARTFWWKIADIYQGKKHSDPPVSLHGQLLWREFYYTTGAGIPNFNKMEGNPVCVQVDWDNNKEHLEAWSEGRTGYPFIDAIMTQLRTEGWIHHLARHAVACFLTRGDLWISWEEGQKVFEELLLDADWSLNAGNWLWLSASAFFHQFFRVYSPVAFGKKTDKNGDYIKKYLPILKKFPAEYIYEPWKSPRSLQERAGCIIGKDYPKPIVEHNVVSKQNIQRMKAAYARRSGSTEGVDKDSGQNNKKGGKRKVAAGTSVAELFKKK

[3] = target: T1, CraCRY; experiment: UV/vis spectroscopy of purified holoprotein; xanthine/xanthine oxidase redox titration; details: co-purified FAD; pH 7.0, Safranin T reference
[4] = target: T2, Xl64; experiment: as above; details: co-purified FAD; pH 7.0, Safranin T reference
[5] = target: T3, At64 (Arabidopsis thaliana, UniProt O48652); experiment: as above; details: co-purified FAD; pH 7.0, Safranin T reference
T3 construct: gene UVR3; recombinant, pET-28a(+), E. coli C41(DE3)/pLysS
T3 sequence (O48652 20-556): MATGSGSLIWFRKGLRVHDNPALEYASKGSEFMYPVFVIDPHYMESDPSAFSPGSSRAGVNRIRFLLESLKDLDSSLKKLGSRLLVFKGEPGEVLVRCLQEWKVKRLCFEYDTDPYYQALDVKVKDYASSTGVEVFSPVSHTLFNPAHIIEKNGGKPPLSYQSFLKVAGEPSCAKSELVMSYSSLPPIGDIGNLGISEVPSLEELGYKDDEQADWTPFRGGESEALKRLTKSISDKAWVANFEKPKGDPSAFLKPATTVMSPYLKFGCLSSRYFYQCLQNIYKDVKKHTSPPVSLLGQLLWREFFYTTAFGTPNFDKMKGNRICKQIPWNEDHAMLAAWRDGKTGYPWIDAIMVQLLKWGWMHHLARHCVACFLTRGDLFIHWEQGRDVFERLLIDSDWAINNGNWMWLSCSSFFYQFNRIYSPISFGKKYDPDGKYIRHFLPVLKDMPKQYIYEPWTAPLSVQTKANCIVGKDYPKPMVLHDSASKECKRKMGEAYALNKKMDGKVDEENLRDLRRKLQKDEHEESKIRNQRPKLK

[6] = target: T4, At64 (Arabidopsis thaliana, UniProt O48652, DEL46-53); experiment: as above; details: At64-ΔExLoop, extended loop Ser46 to Pro53 deleted; co-purified FAD; pH 7.0, Safranin T reference
T4 construct: gene UVR3; recombinant, pET-28a(+), E. coli C41(DE3)/pLysS
T4 sequence (O48652 with tags, fused parts or gaps DEL46-53): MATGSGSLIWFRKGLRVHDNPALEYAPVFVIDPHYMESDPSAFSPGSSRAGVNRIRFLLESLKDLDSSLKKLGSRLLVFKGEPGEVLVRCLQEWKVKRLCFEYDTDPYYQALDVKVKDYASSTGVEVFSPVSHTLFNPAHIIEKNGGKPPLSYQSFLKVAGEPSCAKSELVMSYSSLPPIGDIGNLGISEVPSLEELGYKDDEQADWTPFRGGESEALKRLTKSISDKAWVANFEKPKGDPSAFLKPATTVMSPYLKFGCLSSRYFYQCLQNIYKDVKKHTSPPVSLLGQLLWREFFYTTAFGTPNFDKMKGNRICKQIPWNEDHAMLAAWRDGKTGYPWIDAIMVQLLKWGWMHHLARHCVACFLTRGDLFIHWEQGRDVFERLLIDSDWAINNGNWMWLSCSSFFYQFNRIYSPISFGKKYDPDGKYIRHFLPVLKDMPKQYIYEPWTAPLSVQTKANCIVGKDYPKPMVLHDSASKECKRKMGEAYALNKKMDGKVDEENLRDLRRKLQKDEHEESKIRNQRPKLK

absorption maximum of the complex [1] [nm]	absorption maximum of the complex [2] [nm]	Structure (SMILES)	UV/vis spectroscopy of purified holoprotein; xanthine/xanthine oxidase redox tit [3]	UV/vis spectroscopy of purified holoprotein; xanthine/xanthine oxidase redox tit [4]	UV/vis spectroscopy of purified holoprotein; xanthine/xanthine oxidase redox tit [5]	UV/vis spectroscopy of purified holoprotein; xanthine/xanthine oxidase redox tit [6]
448	441	O=c1nc2n(C[C@H](O)[C@H](O)[C@H](O)CO)c3cc(O)ccc3cc-2c(=O)[nH]1 [8-HDF, 8-hydroxy-7,8-didemethyl-5-deazariboflavin]	–	–	–	–
–	–	Cc1cc2nc3c(=O)[nH]c(=O)nc-3n(C[C@H](O)[C@H](O)[C@H](O)COP(=O)(O)OP(=O)(O)OC[C@H]3O[C@@H](n4cnc5c(N)ncnc54)[C@H](O)[C@@H]3O)c2cc1C [FAD, flavin adenine dinucleotide]	the Em,FAD values of the tested proteins (Xl64, At64, and CraCRY) were identical	the Em,FAD values of the tested proteins (Xl64, At64, and CraCRY) were identical	the Em,FAD values of the tested proteins (Xl64, At64, and CraCRY) were identical	the deletion of the extended loop did not affect the FAD binding site
